# In ChEMBL document CHEMBL1201862, “PubChem BioAssay data set” (2004):
#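 48-hour exposure; five concentrations; linearly interpolated endpoints. GI50 = concentration required for 50% inhibition of growth.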 The source made the active and inactive calls. Cut-off read from the data, not from the text of the source: active = GI50 up to about 1.1 µM and inactive = higher.
# What was measured:
# Experiment in all cases: inhibition of tumour cell growth, NCI panel, 48 h
# HCT-15 = test system: HCT-15
# KM12 = test system: KM12
# NCI-H460 = test system: NCI-H460
# MOLT-4 = test system: MOLT-4
# HCT-116 = test system: HCT-116
# SK-MEL-5 = test system: SK-MEL-5
# LOX IMVI = test system: LOX IMVI
# T47D = test system: T47D
# Hs-578T = test system: Hs-578T
# IGROV-1 = test system: IGROV-1
# OVCAR-4 = test system: OVCAR-4
# NCI-H226 = test system: NCI-H226
# HT-29 = test system: HT-29
# HOP-62 = test system: HOP-62
# NCI-H522 = test system: NCI-H522
# RXF 393 = test system: RXF 393
# RPMI-8226 = test system: RPMI-8226
# SK-MEL-28 = test system: SK-MEL-28
# Malme-3M = test system: Malme-3M
# M19-MEL = test system: M19-MEL
SMILES,GI50 (HCT-15),GI50 (KM12),GI50 (NCI-H460),GI50 (MOLT-4),GI50 (HCT-116),GI50 (SK-MEL-5),GI50 (LOX IMVI),GI50 (T47D),GI50 (Hs-578T),GI50 (IGROV-1),GI50 (OVCAR-4),GI50 (NCI-H226),GI50 (HT-29),GI50 (HOP-62),GI50 (NCI-H522),GI50 (RXF 393),GI50 (RPMI-8226),GI50 (SK-MEL-28),GI50 (Malme-3M),GI50 (M19-MEL)
O=C(O)CC1(C(=O)O)CCCCC1,> 100 µM,> 100 µM (inactive),> 100 µM (inactive),> 100 µM (inactive),> 100 µM (inactive),> 100 µM (inactive),> 100 µM (inactive),> 100 µM (inactive),> 100 µM (inactive),> 100 µM (inactive),> 100 µM (inactive),> 100 µM (inactive),> 100 µM (inactive),> 100 µM (inactive),> 100 µM (inactive),> 100 µM (inactive),> 100 µM (inactive),> 100 µM (inactive),> 100 µM (inactive),–
CSC1=NS(=O)(=O)c2cc(C(=O)NN(C)C(=O)c3cc4c(cc3Cl)SC(SC)=NS4(=O)=O)c(Cl)cc2S1,> 10 µM,> 10 µM (inactive),> 10 µM (inactive),> 10 µM (inactive),> 10 µM (inactive),> 10 µM (inactive),> 10 µM (inactive),> 10 µM (inactive),> 10 µM (inactive),> 10 µM (inactive),> 10 µM (inactive),> 10 µM (inactive),> 10 µM (inactive),> 10 µM (inactive),> 10 µM (inactive),> 10 µM (inactive),> 10 µM (inactive),> 10 µM (inactive),> 10 µM (inactive),–
C=C1c2nc3ccccc3n2C=C(c2ccc(OC)cc2)N1c1ccc(OCCN2CCCCC2)cc1,4.74 µM,8 µM (inactive),2.47 µM (inactive),2.58 µM (inactive),5.83 µM (inactive),7.45 µM (inactive),7.41 µM (inactive),26.6 µM (inactive),11.2 µM (inactive),12.4 µM (inactive),11.6 µM (inactive),28.2 µM (inactive),20 µM (inactive),35.6 µM (inactive),> 100 µM (inactive),27.6 µM (inactive),2.9 µM (inactive),31.2 µM (inactive),> 48.4 µM (inactive),–
COc1ccc(-c2oc3cc(O)c(OC)c(O)c3c(=O)c2OC2OC(CO)C(O)C(O)C2O)cc1 (stereo unspecified),> 100 µM,> 100 µM (inactive),43.3 µM (inactive),> 100 µM (inactive),> 100 µM (inactive),> 100 µM (inactive),> 100 µM (inactive),–,–,> 100 µM (inactive),> 100 µM (inactive),–,> 100 µM (inactive),–,–,–,21.2 µM (inactive),> 100 µM (inactive),–,> 100 µM (inactive)
Cc1cc(C)nc(NC(=S)Nc2ccc(Cl)cc2)c1,> 100 µM,53.6 µM (inactive),66.7 µM (inactive),> 100 µM (inactive),> 100 µM (inactive),> 100 µM (inactive),> 100 µM (inactive),> 100 µM (inactive),21.5 µM (inactive),65.8 µM (inactive),18.4 µM (inactive),27.8 µM (inactive),> 100 µM (inactive),35.9 µM (inactive),1.37 µM (inactive),36.1 µM (inactive),> 100 µM (inactive),> 100 µM (inactive),34.8 µM (inactive),–
COc1ccc(CCN(C)C(=O)CC(C#N)(c2ccccc2)c2ccc(OC)c(OC)c2)cc1OC (stereo unspecified),> 100 µM,> 100 µM (inactive),> 100 µM (inactive),> 45.9 µM (inactive),> 100 µM (inactive),98.4 µM (inactive),> 100 µM (inactive),> 100 µM (inactive),> 100 µM (inactive),> 100 µM (inactive),> 100 µM (inactive),> 100 µM (inactive),> 100 µM (inactive),> 100 µM (inactive),> 94.6 µM (inactive),> 86.5 µM (inactive),> 46.9 µM (inactive),> 100 µM (inactive),> 100 µM (inactive),–
CCc1c(Cl)c(C)cc(O)c1Cl,17.8 µM,22.6 µM (inactive),32.7 µM (inactive),27.4 µM (inactive),33.5 µM (inactive),15.3 µM (inactive),23.8 µM (inactive),26.8 µM (inactive),25.7 µM (inactive),51.1 µM (inactive),34.1 µM (inactive),20.9 µM (inactive),27.5 µM (inactive),> 100 µM (inactive),30.7 µM (inactive),23.4 µM (inactive),24.1 µM (inactive),58.3 µM (inactive),30.1 µM (inactive),–
C/C(=C\COc1ccc2ccc(=O)oc2c1)CCC(=O)C(C)(C)O,17.1 µM,18.5 µM (inactive),31.8 µM (inactive),22.9 µM (inactive),15.6 µM (inactive),16.5 µM (inactive),13.8 µM (inactive),29.9 µM (inactive),26.4 µM (inactive),35.1 µM (inactive),51.9 µM (inactive),26.5 µM (inactive),23.2 µM (inactive),44 µM (inactive),19.4 µM (inactive),14.4 µM (inactive),17 µM (inactive),39.9 µM (inactive),44.9 µM (inactive),–
